Results as given in the supplement of paper PMC5908809.

Columns and labels:
[1] = test system: normal NK cells expanded with K562-aAPC; assay: drug sensitivity score (DSS) (DSS units); higher = more sensitive; extreme values may be limits of the assay; conditions: 72 h; IL-2 2.5 ng/mL
Method: (§1)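 Drug sensitivity and resistance testing on K562-aAPC-expanded normal NK cells: 5 concentrations (10-fold steps over a 10,000-fold range), 72 h at 37 °C, viability by CellTiter-Glo normalised to DMSO and benzethonium chloride controls; DSS from the fitted curve.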

[2] = test system: normal primary NK cells, pool 2 (3 donors) (IL-2 2.5 ng/mL); assay: as above; conditions: 72 h
[3] = test system: normal primary NK cells, pool 3 (3 donors) (IL-2 2.5 ng/mL); assay: as above; conditions: 72 h
IMC-1 (IL-2 20 ng/mL) [4] = assay: as above; conditions: 72 h
NK-YS (IL-2 2.5 ng/mL) [5] = assay: as above; conditions: 72 h
SNK-6 (IL-2 2.5 ng/mL) [6] = assay: as above; conditions: 72 h
[7] = test system: normal primary NK cells, pool 1 (3 donors) (IL-2 2.5 ng/mL); assay: as above; conditions: 72 h
KHYG-1 (IL-2 2.5 ng/mL) [8] = assay: as above; conditions: 72 h
DERL-7 (IL-2 2.5 ng/mL) [9] = assay: as above; conditions: 72 h
YT (IL-2 2.5 ng/mL) [10] = assay: as above; conditions: 72 h
NKL (IL-2 2.5 ng/mL) [11] = assay: as above; conditions: 72 h
NK-92 (IL-2 2.5 ng/mL) [12] = assay: as above; conditions: 72 h
[13] = test system: normal primary NK cells, pool 1 (3 donors), resting (IL-2 0 ng/mL); assay: as above; conditions: 72 h
KAI3 (IL-2 2.5 ng/mL) [14] = assay: as above; conditions: 72 h
[15] = test system: normal NK cells expanded with K562-aAPC; assay: percent inhibition of viability; higher = more inhibition; conditions: 72 h, IL-2 2.5 ng/mL
Method: as §1

[16] = test system: normal primary NK cells, pool 2 (3 donors) (IL-2 2.5 ng/mL); assay: as above; conditions: 72 h
[17] = test system: normal primary NK cells, pool 3 (3 donors) (IL-2 2.5 ng/mL); assay: as above; conditions: 72 h
IMC-1 (IL-2 20 ng/mL) [18] = assay: as above; conditions: 72 h
NK-YS (IL-2 2.5 ng/mL) [19] = assay: as above; conditions: 72 h
SNK-6 (IL-2 2.5 ng/mL) [20] = assay: as above; conditions: 72 h
[21] = test system: normal primary NK cells, pool 1 (3 donors) (IL-2 2.5 ng/mL); assay: as above; conditions: 72 h
KHYG-1 (IL-2 2.5 ng/mL) [22] = assay: as above; conditions: 72 h
DERL-7 (IL-2 2.5 ng/mL) [23] = assay: as above; conditions: 72 h
YT (IL-2 2.5 ng/mL) [24] = assay: as above; conditions: 72 h
NKL (IL-2 2.5 ng/mL) [25] = assay: as above; conditions: 72 h
NK-92 (IL-2 2.5 ng/mL) [26] = assay: as above; conditions: 72 h
[27] = test system: normal primary NK cells, pool 1 (3 donors), resting (IL-2 0 ng/mL); assay: as above; conditions: 72 h
KAI3 (IL-2 2.5 ng/mL) [28] = assay: as above; conditions: 72 h

CC(=O)O[C@H]1C(=O)[C@@]2(C)[C@H]([C@H](OC(=O)c3ccccc3)[C@]3(O)C[C@H](OC(=O)[C@H](O)[C@@H](NC(=O)c4ccccc4)c4ccccc4)C(C)=C1C3(C)C)[C@]1(OC(C)=O)CO[C@@H]1C[C@@H]2O [Paclitaxel] (max concentration tested 1000 nM)
Conditions	drug sensitivity score
DERL-7 (IL-2 2.5 ng/mL) [9]	30.3
IMC-1 (IL-2 20 ng/mL) [4]	30.2
KAI3 (IL-2 2.5 ng/mL) [14]	18.9
KHYG-1 (IL-2 2.5 ng/mL) [8]	26.9
NK-92 (IL-2 2.5 ng/mL) [12]	18.8
NK-YS (IL-2 2.5 ng/mL) [5]	22.8
NKL (IL-2 2.5 ng/mL) [11]	26.6
SNK-6 (IL-2 2.5 ng/mL) [6]	23.7
YT (IL-2 2.5 ng/mL) [10]	27.5
[1]	10.8
[2]	0.27
[3]	0
[7]	0
[13]	0

percent inhibition of viability [%]
Conditions	0.1 nM	1 nM	10 nM	100 nM	1000 nM
DERL-7 (IL-2 2.5 ng/mL) [23]	2.23	-0.79	99.4	100	99.4
IMC-1 (IL-2 20 ng/mL) [18]	-7.88	-0.55	98.5	100	99.5
KAI3 (IL-2 2.5 ng/mL) [28]	-12.1	9.77	53	60.6	46.1
KHYG-1 (IL-2 2.5 ng/mL) [22]	-5.68	-0.23	77.2	106	99.2
NK-92 (IL-2 2.5 ng/mL) [26]	-18.6	-5.15	11.3	92.6	94
NK-YS (IL-2 2.5 ng/mL) [19]	-2.51	-5.4	71.3	77.6	64.6
NKL (IL-2 2.5 ng/mL) [25]	-17.5	-11.8	84.1	93.2	87.1
SNK-6 (IL-2 2.5 ng/mL) [20]	6.76	-3.54	75.5	79	72.6
YT (IL-2 2.5 ng/mL) [24]	-2.12	-2.24	82.5	102	93.8
[15]	0.76	-4.63	3.65	56.1	55.1
[16]	-2.11	-0.3	-9.26	1.41	14
[17]	-12.4	-15.8	-13.3	-0.71	10.2
[21]	-14.5	-13.4	-1.12	-4.6	3.64
[27]	-38.3	-37.4	-2.05	-14	0.96

CC[C@H](NC(=O)[C@H](C)NC)C(=O)N1C[C@@H](O)C[C@H]1Cc1c(-c2[nH]c3cc(F)ccc3c2C[C@@H]2C[C@H](O)CN2C(=O)[C@H](CC)NC(=O)[C@H](C)NC)[nH]c2cc(F)ccc12 [Birinapant] (max concentration tested 1000 nM)
Conditions	drug sensitivity score
DERL-7 (IL-2 2.5 ng/mL) [9]	10.5
IMC-1 (IL-2 20 ng/mL) [4]	2.52
KAI3 (IL-2 2.5 ng/mL) [14]	1
KHYG-1 (IL-2 2.5 ng/mL) [8]	0.34
NK-92 (IL-2 2.5 ng/mL) [12]	2.35
NK-YS (IL-2 2.5 ng/mL) [5]	0
NKL (IL-2 2.5 ng/mL) [11]	3.5
SNK-6 (IL-2 2.5 ng/mL) [6]	0
YT (IL-2 2.5 ng/mL) [10]	0
[1]	3.47
[2]	3.2
[3]	1.6
[7]	3.88
[13]	3.83

percent inhibition of viability [%]
Conditions	0.1 nM	1 nM	10 nM	100 nM	1000 nM
DERL-7 (IL-2 2.5 ng/mL) [23]	7.8	5.54	23.2	43.1	46.6
IMC-1 (IL-2 20 ng/mL) [18]	-3.47	1.41	-0.22	1.34	45.6
KAI3 (IL-2 2.5 ng/mL) [28]	1.71	-5.41	-0.72	9.21	15.7
KHYG-1 (IL-2 2.5 ng/mL) [22]	-2.97	-5.19	-7.39	-1.77	17.7
NK-92 (IL-2 2.5 ng/mL) [26]	-4.58	-12.3	5.84	11.1	31
NK-YS (IL-2 2.5 ng/mL) [19]	-2.88	-9.14	-8.38	-5.45	-8.45
NKL (IL-2 2.5 ng/mL) [25]	5.63	0.8	3.21	19.2	32.2
SNK-6 (IL-2 2.5 ng/mL) [20]	-1.62	-1.64	-7.31	-10.8	-16.1
YT (IL-2 2.5 ng/mL) [24]	1.52	-1.94	2.55	4.56	2.39
[15]	-2.92	-0.28	2.8	10.2	38.9
[16]	-6.05	-7.14	-11.2	2.7	53.1
[17]	-4.73	-7.57	-8.06	-3.61	38.2
[21]	-9.47	-11.8	3.46	0.49	69.2
[27]	-23.1	-28.9	-10.4	-2.86	73.8
